Measurements reported in PubChem BioAssay (NCI).
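Results reflect a 48-hour exposure of cells in 96-well plates to compound at five concentrations. GI50 is the concentration that inhibits growth by half. TGI denotes the concentration required for complete inhibition of growth.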

How the values were obtained:
Assay in all cases: DTP human tumour cell line panel, 48 h
786-0 renal = system: 786-0 renal
A498 renal = system: A498 renal
A549 NSCLC = system: A549 NSCLC
ACHN renal = system: ACHN renal
BT-549 breast = system: BT-549 breast
CAKI-1 renal = system: CAKI-1 renal
CCRF-CEM leukemia = system: CCRF-CEM leukemia
COLO 205 colon = system: COLO 205 colon
DU-145 prostate = system: DU-145 prostate
EKVX NSCLC = system: EKVX NSCLC
HCC-2998 colon = system: HCC-2998 colon
HCT-116 colon = system: HCT-116 colon
HCT-15 colon = system: HCT-15 colon
HL-60(TB) leukemia = system: HL-60(TB) leukemia
HOP-62 NSCLC = system: HOP-62 NSCLC
HOP-92 NSCLC = system: HOP-92 NSCLC
HS 578T breast = system: HS 578T breast
HT29 colon = system: HT29 colon
IGROV1 ovarian = system: IGROV1 ovarian
K-562 leukemia = system: K-562 leukemia
KM12 colon = system: KM12 colon
LOX IMVI melanoma = system: LOX IMVI melanoma
M14 melanoma = system: M14 melanoma
MALME-3M melanoma = system: MALME-3M melanoma
MCF7 breast = system: MCF7 breast
MDA-MB-231 breast = system: MDA-MB-231 breast
MDA-MB-435 = system: MDA-MB-435
MOLT-4 leukemia = system: MOLT-4 leukemia
NCI-H226 lung = system: NCI-H226 lung
NCI-H23 lung = system: NCI-H23 lung
NCI-H460 lung = system: NCI-H460 lung
NCI-H522 lung = system: NCI-H522 lung
NCI/ADR-RES ovarian = system: NCI/ADR-RES ovarian
OVCAR-3 ovarian = system: OVCAR-3 ovarian
OVCAR-4 ovarian = system: OVCAR-4 ovarian
OVCAR-5 ovarian = system: OVCAR-5 ovarian
OVCAR-8 ovarian = system: OVCAR-8 ovarian
PC-3 prostate = system: PC-3 prostate
RPMI-8226 leukemia = system: RPMI-8226 leukemia
RXF 393 renal = system: RXF 393 renal
SF-268 CNS = system: SF-268 CNS
SF-295 CNS = system: SF-295 CNS
SF-539 CNS = system: SF-539 CNS
SK-MEL-2 melanoma = system: SK-MEL-2 melanoma
SK-MEL-28 melanoma = system: SK-MEL-28 melanoma
SK-MEL-5 melanoma = system: SK-MEL-5 melanoma
SK-OV-3 ovarian = system: SK-OV-3 ovarian
SN12C renal = system: SN12C renal
SNB-19 CNS = system: SNB-19 CNS
SNB-75 CNS = system: SNB-75 CNS
SW-620 colon = system: SW-620 colon
T-47D breast = system: T-47D breast
TK-10 renal = system: TK-10 renal
U251 CNS = system: U251 CNS
UACC-257 melanoma = system: UACC-257 melanoma
UACC-62 melanoma = system: UACC-62 melanoma
UO-31 renal = system: UO-31 renal

COc1cc2c(cc1OC)C(=O)/C(=C/c1cccc(OCC(=O)c3ccccc3)c1)C2
GI50 (786-0 renal): 35.5 µM
TGI (786-0 renal): > 100 µM
GI50 (A498 renal): 21.7 µM
TGI (A498 renal): > 100 µM
GI50 (A549 NSCLC): 26.6 µM
TGI (A549 NSCLC): > 100 µM
GI50 (ACHN renal): 26.7 µM
TGI (ACHN renal): > 100 µM
GI50 (BT-549 breast): 24.9 µM
TGI (BT-549 breast): > 100 µM
GI50 (CAKI-1 renal): 12.7 µM
TGI (CAKI-1 renal): 79.3 µM
GI50 (CCRF-CEM leukemia): 2.17 µM
TGI (CCRF-CEM leukemia): 7.31 µM
GI50 (COLO 205 colon): 28 µM
TGI (COLO 205 colon): > 100 µM
GI50 (DU-145 prostate): 11.3 µM
TGI (DU-145 prostate): > 100 µM
GI50 (EKVX NSCLC): 33.5 µM
TGI (EKVX NSCLC): > 100 µM
GI50 (HCC-2998 colon): 73.1 µM
TGI (HCC-2998 colon): > 100 µM
GI50 (HCT-116 colon): 5.44 µM
TGI (HCT-116 colon): > 100 µM
GI50 (HCT-15 colon): 9.3 µM
TGI (HCT-15 colon): > 100 µM
GI50 (HL-60(TB) leukemia): 6.44 µM
TGI (HL-60(TB) leukemia): 61.8 µM
GI50 (HOP-62 NSCLC): 35.8 µM
TGI (HOP-62 NSCLC): > 100 µM
GI50 (HOP-92 NSCLC): 0.569 µM
TGI (HOP-92 NSCLC): 27.8 µM
GI50 (HS 578T breast): 13.1 µM
TGI (HS 578T breast): 75.2 µM
GI50 (HT29 colon): 12.9 µM
TGI (HT29 colon): > 100 µM
GI50 (IGROV1 ovarian): 5.79 µM
TGI (IGROV1 ovarian): > 100 µM
GI50 (K-562 leukemia): 3.11 µM
TGI (K-562 leukemia): > 100 µM
GI50 (KM12 colon): 7.79 µM
TGI (KM12 colon): > 100 µM
GI50 (LOX IMVI melanoma): 18.3 µM
TGI (LOX IMVI melanoma): > 100 µM
GI50 (M14 melanoma): 34.2 µM
TGI (M14 melanoma): > 100 µM
GI50 (MALME-3M melanoma): 25.1 µM
TGI (MALME-3M melanoma): > 100 µM
GI50 (MCF7 breast): 5.83 µM
TGI (MCF7 breast): > 100 µM
GI50 (MDA-MB-231 breast): 23.8 µM
TGI (MDA-MB-231 breast): > 100 µM
GI50 (MDA-MB-435): 23.1 µM
TGI (MDA-MB-435): > 100 µM
GI50 (MOLT-4 leukemia): 2.58 µM
TGI (MOLT-4 leukemia): 14 µM
GI50 (NCI-H226 lung): 20.2 µM
TGI (NCI-H226 lung): > 100 µM
GI50 (NCI-H23 lung): 22.3 µM
TGI (NCI-H23 lung): > 100 µM
GI50 (NCI-H460 lung): 13.3 µM
TGI (NCI-H460 lung): 91.9 µM
GI50 (NCI-H522 lung): 4.6 µM
TGI (NCI-H522 lung): 50.5 µM
GI50 (NCI/ADR-RES ovarian): 6.93 µM
TGI (NCI/ADR-RES ovarian): > 100 µM
GI50 (OVCAR-3 ovarian): 17.1 µM
TGI (OVCAR-3 ovarian): > 100 µM
GI50 (OVCAR-4 ovarian): 30.4 µM
TGI (OVCAR-4 ovarian): > 100 µM
GI50 (OVCAR-5 ovarian): 73.9 µM
TGI (OVCAR-5 ovarian): > 100 µM
GI50 (OVCAR-8 ovarian): 5.04 µM
TGI (OVCAR-8 ovarian): > 100 µM
GI50 (PC-3 prostate): 5.11 µM
TGI (PC-3 prostate): > 100 µM
GI50 (RPMI-8226 leukemia): 1.4 µM
TGI (RPMI-8226 leukemia): 3.9 µM
GI50 (RXF 393 renal): 35.4 µM
TGI (RXF 393 renal): > 100 µM
GI50 (SF-268 CNS): 15.3 µM
TGI (SF-268 CNS): 63.3 µM
GI50 (SF-295 CNS): 5.06 µM
TGI (SF-295 CNS): 40.8 µM
GI50 (SF-539 CNS): 16.2 µM
TGI (SF-539 CNS): 63.9 µM
GI50 (SK-MEL-2 melanoma): 10.2 µM
TGI (SK-MEL-2 melanoma): > 100 µM
GI50 (SK-MEL-28 melanoma): 58.4 µM
TGI (SK-MEL-28 melanoma): > 100 µM
GI50 (SK-MEL-5 melanoma): 4.24 µM
TGI (SK-MEL-5 melanoma): > 100 µM
GI50 (SK-OV-3 ovarian): 99.2 µM
TGI (SK-OV-3 ovarian): > 100 µM
GI50 (SN12C renal): 23.8 µM
TGI (SN12C renal): > 100 µM
GI50 (SNB-19 CNS): 25.7 µM
TGI (SNB-19 CNS): > 100 µM
GI50 (SNB-75 CNS): 12 µM
TGI (SNB-75 CNS): 37.8 µM
GI50 (SW-620 colon): 38.3 µM
TGI (SW-620 colon): > 100 µM
GI50 (T-47D breast): 4.34 µM
TGI (T-47D breast): 68.8 µM
GI50 (TK-10 renal): 57.8 µM
TGI (TK-10 renal): > 100 µM
GI50 (U251 CNS): 8.17 µM
TGI (U251 CNS): > 100 µM
GI50 (UACC-257 melanoma): 49.1 µM
TGI (UACC-257 melanoma): > 100 µM
GI50 (UACC-62 melanoma): 8.07 µM
TGI (UACC-62 melanoma): 90.8 µM
GI50 (UO-31 renal): 6.93 µM
TGI (UO-31 renal): > 100 µM
